The values that follow come from US5691328A, “Phosphoethanolamine conjugates of vitamin D compounds” (Clarion Pharmaceuticals Inc., priority 1996, dated 1997).

A word on the inhibition: it is the relative decrease from the control value, in per cent.

In experiment [1] the test system is MDA-MB-231 Human Breast Cancer Cell. As to the kind of experiment: in vitro MDA-MB-231 Human Breast Cancer Cell inhibition assay (sulforhodamine B). It counts as cell-based. The note with it: at 100 μM; 48 hours; FIG. 1. The source says: FIG. 1 is a graphical representation of results from an in vitro MDA-MB-231 Human Breast Cancer Cell inhibition assay of a compound of the invention, designated CPR 2005, in comparison with vitamin D3.
(§1) 1. Human tumor cell lines, obtainable from the American Type Culture Collection (ATCC):
a. MDA-MB-231 (ATCC HTB-26): an estrogen receptor negative human breast carcinoma cell line (attachment dependent); and
a. For cell line 1-a: Dulbecco's Modified Eagle's Medium (DMEM) plus 10% Fetal Bovine Serum (FBS); and
(§2) 3. Standard protocol for culturing cell lines: in T-75 or T-150 flasks; 37° C.; 95% air, 5% CO2; 100% humidity;
a. […]
(§3) h. Read absorbance at 562 nm using a standard 96-well microtiler plate reader. Absorbance readings are linear with dye concentrations below 1.8 absorbance units. To reduce absorbance, decrease wavelength at which measurements are taken;
(§4) single point reading: the higher the absorbance, the higher the […]; […]
(§5) initial control cell number (ICCN)--no test compound present in culture medium, end point was determined at the time of treatment;
(§6) final control cell number (FCCN)--no test compound present in culture medium, end point was determined at […] after treatment;
(§7) final cell number (FCN)--test compound present in culture medium, end point was determined at 48 hours after treatment; […]
(§8) FCN=A(test compound, 48 hours)-A(Background) [formula] where A is absorbance. […]

Experiment [2] deals with HT-29 Human Colon Cancer Cells. In words: in vitro HT-29 Human Colon Cancer Cells inhibition assay (sulforhodamine B). In kind it is cell-based. As to conditions: at concentrations above 30 μM; 48 hours; FIG. 2.
Text: FIG. 2 is a graphical representation of results from an in vitro HT-29 Human Colon Cancer Cells inhibition assay of a compound of the invention, designated CPR 2005, in comparison with Vitamin D3.
as §1
b. HT-29 (ATCC HTB-38): a human colon caminoma cell line (attachment dependent).
b. For cell line 1-b: 1:1 DMEM and Ham's F-12 (DMEM/F12) plus 10% FBS.
as §2
a. […]
as §3, §4, §5, §6, §7, §8

Experiment [3] concerns PAM-212 Mouse Keratinocytes. As to the kind of experiment: in vitro PAM-212 Mouse Keratinocytes inhibition assay (anti-psoriasis). It counts as cell-based. The note with it: at concentrations above 30 μM, 48 hours, FIG. 3. The text has this: FIG. 3 is a graphical representation of results from an in vitro PAM-212 Mouse Keratinocytes inhibition assay of a compound of the invention, designated CPR 2005, in comparison with vitamin D3.
Psoriasis is a chronic inflammatory dermatosis characterized, in part, by hyper-proliferation of keratinocytes and release of pro-inflammatory cytokines. Compounds that reduce hyperproliferation of keratinocytes in vitro are likely to have utility in the control of psoriasis.
1. Cell line: PAM-212 murine keratinocyte cell line isolated and cultivated from newborn BALB/c mice (see S. H. Yuspa et al., Cancer Research, Vol. 40, pp. 4694-4703, December, 1980) that appears to retain many characteristics of normal keratinocytes.
2. Culture medium: 1:1 DMEM and Ham's F-12 with 10% FBS.
3. Culture conditions are the same as those described in part 3 of the assay protocol for anti-tumor activity.
4. Methodology is the same as that described in part 4 of the assay protocol for anti-tumor activity, except that, with reference to part 4(b) of the assay protocol for anti-tumor activity, cell concentration in this case is adjusted to 1,000 cells per 100 μL (rather than 5,000 cells per 100 μL).
5. End point determination and analysis are as described in part 5 of the assay protocol for anti-tumor activity.

For experiment [4], the system named is RAW 264.7 murine monocyte/macrophage line. As to the kind of experiment: Assay for Anti-inflammatory Activity by Inhibition of Macrophage Chemiluminescence (respiratory burst, PMA-stimulated mouse macrophages). In kind it is cell-based.
Text: The RAW 264.7 cell line (available from the ATCC under accession no. TIB 71) is a murine monocyte/macrophage line the cells of which show many of the differentiative functions of a macrophage. Like macrophages, the cells are capable of phagocytosis and undergo an oxidative burst (increased oxygen consumption) and production of oxygen radicals (e.g., superoxide) in response to appropriate signals. Agents that inhibit the activation of these cells in vitro, so as to inhibit the respiratory burst and corresponding production of oxygen radicals associated with the activation, are therefore inhibitors of macrophage activation and critical steps in inflammatory processes.
The respiratory burst and corresponding production of oxygen radicals that accompany macrophage activation can be measured in a variety of ways, including chemiluminescence based on the reaction of the oxygen radicals with luminol added to the culture medium (see M. A. Trush et at., 1978, "The Generation of Chemiluminescence by Phagocytic Cells." Methods in Enzymology 57: 462-494). Indeed, chemiluminescence generated from luminol in the culture medium of macrophage cell lines is recognized in the art as a marker of macrophage activation.
1. Cell line: Raw 264.7 (ATCC TIB-71, attachment dependent);
2. Culture medium: DMEM with 10% FBS;
as §2
a. Cell line is passaged when approximately 80% confluent; with trypsin (1 mg/ml) and EDTA ([…] in ca-MG free Hank's balanced salt solution); at a 1:4 to 1:5 split;
b. All procedures are performed aseptically in a class II biological safety cabinet using standard BL-2 containment procedures. In order to prevent genetic drift in stock cell lines, fresh cultures are prepared at approximately monthly intervals with cells thawed from liquid nitrogen storage.
a. After cell passage, count cells with a hemacytometer;
b. Adjust cell concentration to approximately 1,000,000 cells per mL;
c. Suspend cells in DMEM lacking phenol red and without FBS;
d. Pipette 1 mL of cell suspension into a standard luminometer cuvet (12×75), commercially obtainable from Analytical Luminescence Laboratories, San Diego, Calif., USA;
e. Add luminol to final concentration of 0.2 μM;
f. Add test compound dissolved in phosphate buffered saline (PBS), or in DMSO for the comparative compound, vitamin D3, for final concentration levels ranging from 0 to 30 μM;
g. Add 100 nanograms of phorbol myristate acetate (PMA); and
h. Wait 1 minute and read photo counts (i.e., luminescence) on a Monolight 2010 luminometer available from Analytical Luminescence Laboratories, San Diego.
Background--no test compound present; no PMA present;
Control--no test compound present;
Calculate: [formula] where L is luminescence. 6.

Experiment [5] relates to PMA-Induced Inflammation in Ears of CD-1 Mice. As to the kind of experiment: PMA-induced inflammation in mouse ears. It counts as in vivo, mouse (CD-1). As to conditions: 6 hours. On the procedure: A common in vivo model for the evaluation of anti-inflammatory agents is PMA-induced inflammation in mouse ears. This method is described in "Pharmacological Methods in the Control of Inflammation", Joseph Y. Chang and Alan J. Lewis (eds), Alan R. Liss, Inc., N.Y., pp 221-223. In this assay, edema, which is a characteristic of inflammation, is quantified by determining ear thickness or ear weight approximately 6 hours after applying PMA to the ear.
1. Mice: Male CD-1, 21-24 g (Product Number 3002) obtainable from Harlan Sprague Dawley, Indianapolis, Ind., USA;
a. Prepare 0.01% (w/v) PMA in a mixture of equal volumes of acetone and ethanol;
b. Prepare 0.01% (w/v) PMA and 5% (w/v) test compound in a mixture of equal volumes of acetone and ethanol;
c. Divide 9 mice into 3 groups of 3 mice each;
d. Leave one group of mice untreated;
e. Treat the second group of mice by applying 20 μL of PMA solution to both ears using a micropipetter;
f. Treat the third group of mice by applying 20 μL of PMA solution to the right ear and 20 μL of PMA/test compound solution to the left ear;
g. Wait 6 hours and euthanize the mice in a CO2 chamber;
h. Cut the ears and punch out circles of 6-mm diameter; and
I. Measure the weight of three appropriate ear punches in the same group together.

Where [6] appears, read: Mus musculus, RAW264.7, read-out: % Inhibition of Respiratory Burst.

Read-outs that look alike come from different tables or passages of the source.

For `C=C1CC[C@H](OP(=O)([O-])OCC[N+](C)(C)C)C/C1=C/C=C1\CCC[C@]2(C)[C@@H]([C@H](C)CCCC(C)C)CC[C@@H]12` [CPR 2005, (5Z,7E)-(3S)-9,10-Secocholesta-5,7,10(19)-trien-3-phosphocholine], the “inhibition of MDA-MB-231 cell growth” value in experiment [1] was “marked inhibition”. For the same compound, the “inhibition of HT-29 cell growth” value in experiment [2] is “marked inhibition”. For the same compound, in experiment [3], the “inhibition of keratinocyte proliferation” value is given as “marked inhibition”. Moreover, in experiment [4] (RAW264.7, Concentration 1 μM, PMA-Stimulated Mouse Macrophages, read-out: % Inhibition of Respiratory Burst), the inhibition at 1 µM stood at 45%. The inhibition at 3 µM in experiment [4] (RAW264.7, Concentration 3 μM, PMA-Stimulated Mouse Macrophages, read-out: % Inhibition of Respiratory Burst) turned out to be 90%. Besides, the inhibition at 10 µM in experiment [4] (RAW264.7, Concentration 10 μM, PMA-Stimulated Mouse Macrophages, read-out: % Inhibition of Respiratory Burst) came to 98%. The inhibition at 30 µM in experiment [4] (RAW264.7, Concentration 30 μM, PMA-Stimulated Mouse Macrophages, read-out: % Inhibition of Respiratory Burst) came to 99%. In addition, the inhibition of luminescence entry in experiment [4] (at concentrations above 1 μM, PMA-stimulated) is “marked inhibition”. Further, in experiment [5] (CPR 2005 + PMA (left ear), PMA (right ear, 30 mg), PMA both ears: left 34, right 28, untreated 12, 20 μL of 0.01% PMA / 5% (w/v) test compound), the “Average Weight of Punched Ear, left ear” value is 15 mg. The “inhibition of PMA-induced inflammation in mouse ear” value in experiment [5] (topical, 5% (w/v) test compound) is on record as “marked inhibition”.

Turning to `C=C1CC[C@H](O)C/C1=C/C=C1\CCC[C@]2(C)[C@@H]([C@H](C)CCCC(C)C)CC[C@@H]12` [Vitamin D3, 9, 10-secocholesta-5,7,10(19)-trien-3-ol, reference compound], in experiment [4] (setting [6]), the inhibition at 1 µM is 10%, the inhibition at 3 µM was 9%, the inhibition at 10 µM turned out to be 2% and the inhibition at 30 µM amounted to 12%.
